In brackets after ≈: the same amount, converted by molar mass. Entries after “also recorded” stand apart in the source; their conditions may differ.
Assays:
freshly isolated T-cells = assay: T-cell proliferation, anti-CD3/anti-CD28 activation, 3H-thymidine incorporation; format: cell-based
Procedure: A cell-culture system was used in which freshly isolated T-cells were polyclonally activated by anti-CD3/anti-CD28 beads. The cells were allowed to proliferate for at least 10 days in the presence or absence of different dilutions of the composition of the invention. T-cell proliferation was assessed on day 3, 5, 7 and 10 by means of 3H-thymidine incorporation. In this model, T-cell proliferation is maximal at day 3 and gradually declines at day 10.
The experiments were repeated, except that freshly isolated T-cells were stimulated with anti-CD3/antio-CD28 antibodies in the presence of the composition diluted to a concentration of 50 μM of N-octanoyl dopamine and various concentrations of ciclosporin A or tacrolimus. Similar concentrations of ciclosporin A or tacrolimus were also tested in the absence of the composition.

Cardiomyocytes = assay: Cold storage injury of cardiomyocytes (ATP, LDH release, contraction rate); format: cell-based, rats
Procedure: Cardiomyocytes were freshly isolated from new born rats and cultured for 3 days. […] ATP levels and LDH release was measured after 8 hours of cold preservation and hereafter cardiomyocytes were re-warmed and the contraction rate per well and ATP regeneration were determined.

[1] = Solubilisation of N-octanoyl dopamine by polysorbates; format: physicochemical; conditions: 0.5 wt.-% polysorbate 20 or polysorbate 80 solution, aqueous with cosolvent or surfactant or cyclodextrin; 0.5 wt.-% polysorbate 20 or polysorbate 80, individually; read-out: amount of N-octanoyl dopamine solubilised
Excerpt: In one particular embodiment, the amount of amphiphilic excipient is at least about 0.05 wt.-%. According to a further embodiment, the amount is from about 0.1 wt.-% to about 30 wt.-%, or from about 0.5 wt.-% to about 20 wt.-%, respectively. […] However, if the composition is to be used as a concentrate to be added to a commercial solution for tissue and organ preservation, the concentrate itself may also comprise the amphiphilic excipient at a relatively high concentration, taking into account the dilution factor. In a further embodiment, the ratio of N-octanoyl dopamine to the amphiphilic excipient is selected in the range from about 5:1 to about 1:50.

[2] = Compatibility with organ preservation solutions (UW, HTK); format: physicochemical; conditions: usual behaviour, leading to brownish-pink colour
Procedure: Two samples of the formulation of example 4 having a N-octanoyl dopamine concentration of 11.16 mg/mL were individually mixed with either University of Wisconsin solution (Viaspan, or UW) or histidine-tryptophan-ketoglutarate (HTK) solution (Custodiol) at a volume ratio of 1:4 (1 part of the inventive composition plus 4 parts of the conventional solution).

[3] = system: Human umbilical vein endothelial cells (HUVEC) stimulated with TNF-α; assay: TNF-α-mediated inflammation in HUVEC (gene expression profiling, qPCR, Western blotting, NF-κB activation); format: cell-based
Procedure: Human umbilical vein endothelial cells (HUVEC) were stimulated with TNF-α (tumour-necrosis-factor alpha) in the absence or presence of various concentrations of the N-octanoyl dopamine formulation. Affymetrix Gene Expression Profiling, quantitative PCR, Western-blotting and NF-κB activation were performed to assess the anti-inflammatory potential of the composition of the invention. As a comparator, a surfactant-free aqueous dispersion of N-octanoyl dopamine, which is not an embodiment of the invention, was also tested.

For `C=CC[C@@H]1/C=C(\C)C[C@H](C)C[C@H](OC)[C@H]2O[C@@](O)(C(=O)C(=O)N3CCCC[C@H]3C(=O)O[C@H](/C(C)=C/[C@@H]3CC[C@@H](O)[C@H](OC)C3)[C@H](C)[C@@H](O)CC1=O)[C@H](C)C[C@@H]2OC` [tacrolimus, reference compound], the “concentration of maximal inhibition of T-cell proliferation” value (freshly isolated T-cells; calcineurin inhibitor alone, absence of the composition) was 1 µM and the “ciclosporin A or tacrolimus concentration still giving complete inhibition of T-cell proliferation” value (freshly isolated T-cells; in the presence of 50 μM N-octanoyl dopamine) was 1 nM.
In the case of `NCCc1ccc(O)c(O)c1` [dopamine], the “LDH-release after cold storage” value (Cardiomyocytes; 8 hours at 4° C., FIG. 2) is reported as “inhibited”, the “ATP level after cold storage” value (Cardiomyocytes; 8 hours at 4° C., compared with untreated cells, FIG. 1) is reported as “dose-dependent mitigation of ATP loss” and the “regeneration of ATP after re-warming” value (Cardiomyocytes; after 8 hours at 4° C., compared to untreated cells) is reported as “much faster”. For the same compound, the “contraction rate after re-warming” value (Cardiomyocytes; after 8 hours at 4° C., treated cells) was “significantly improved rate”.
With `CCCCCCCC(=O)NCCc1ccc(O)c(O)c1` [N-octanoyl dopamine, N-octanoyl-4-(2-aminoethyl)benzene-1,2-diol] the solubility [1] was 40 mM (≈ 11.2 mg/mL), the “oxidation of N-octanoyl dopamine when mixed with UW or HTK” value [2] was “occurs very rapidly” and the HO-1 expression [3] was “strongly upregulated”. For the same compound, the “concentration at which HO-1 was significantly induced” value [3] was 1 µM, the “concentration required for inhibition of VCAM-1 expression” value [3] was 50 µM and the T-cell proliferation (freshly isolated T-cells; 25 μM N-octanoyl dopamine) was “without effect”. For the same compound, the T-cell proliferation (freshly isolated T-cells; 50 μM N-octanoyl dopamine) was “inhibited T-cell proliferation at day 3; also recorded: only partly inhibited T-cell proliferation at day 3 but not thereafter”, the “reduction of the amount of calcineurin inhibitor required for complete T-cell suppression” value (freshly isolated T-cells; 50 μM N-octanoyl dopamine) was “at least 1000 fold” and the T-cell proliferation (freshly isolated T-cells; 100 μM N-octanoyl dopamine) was “inhibited at day 3, day 5 and partly at day 7”. For the same compound, the “NFκB and AP-1 in T-cells” value (freshly isolated T-cells; downstream of early T-cell receptor signalling events) was “inhibition” and the “inhibition of T-cell proliferation after oxidation / without redox activity” value (freshly isolated T-cells; oxidation of N-octanoyl dopamine, or compounds lacking redox activity) was “abrogated”.
